Laboratory results reported in patent US5206162A, “Process for making D-aminoacylase” (National Science Council of Republic of China, priority 1991, dated 1993).
Like-named read-outs stand apart in the source and are kept apart here.

What was measured:
Assay type in all cases: biochemical
D-aminoacylase [1] = biological target: T1, D-aminoacylase (Alcaligenes faecalis, UniProt Q9AGH8); assay: Influence of metallic ions on D-aminoacylase activities; conditions: 1 mM metallic ion, 50 mM Tris-HCl pH 7.8, 30 minutes at 37° C., ninhydrin method
T1 sequence (Q9AGH8 1-484): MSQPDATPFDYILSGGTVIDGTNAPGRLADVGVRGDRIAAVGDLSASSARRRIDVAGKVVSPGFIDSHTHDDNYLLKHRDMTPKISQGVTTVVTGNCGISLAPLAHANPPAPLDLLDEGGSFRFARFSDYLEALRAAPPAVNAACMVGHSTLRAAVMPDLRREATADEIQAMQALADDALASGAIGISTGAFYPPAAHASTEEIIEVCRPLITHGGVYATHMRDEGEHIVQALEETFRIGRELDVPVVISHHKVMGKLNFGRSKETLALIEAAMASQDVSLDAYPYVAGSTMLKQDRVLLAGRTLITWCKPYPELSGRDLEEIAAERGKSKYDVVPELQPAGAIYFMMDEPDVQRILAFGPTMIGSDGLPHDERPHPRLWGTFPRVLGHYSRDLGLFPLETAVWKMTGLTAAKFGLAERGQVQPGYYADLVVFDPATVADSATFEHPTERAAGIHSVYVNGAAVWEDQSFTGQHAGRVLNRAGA

D-aminoacylase [2] = biological target: T1, D-aminoacylase; assay: Reagents (inhibitors) influencing the D-aminoacylase activities
D-aminoacylase [3] = biological target: T1, D-aminoacylase; assay: Substrate specificity of D-aminoacylase (hydrolysis of N-acyl amino acids, ninhydrin method); conditions: for Relative Activity D-form: D-form of the substrate, N-acetyl-D-methionine = 100; for Relative Activity L-form: L-form of the substrate, relative to N-acetyl-D-methionine = 100
Text: The activity of D-aminoacylase obtained by the method of this invention may be measured in accordance with Rosen method by using suitable amount of enzyme to decompose N-acetyl-D-methionine, of which the produced D-methionine may be quantitatively measured by D-amino acid oxidase or by ninhydrin method. [Note: H. Rosen, A modified ninhydrin colorimetric analysis for amino acids. Arch. Biochem. Biophys. 67:10-15 (1957)].
The activity unit of enzyme of this invention is defined herewith as the enzyme quantity required for decomposing 10 mM N-acetyl-D-methionine solution for releasing 1μ mole D-methionine per minute at 37° C.
The D-aminoacylase of this invention (hereinafter simply designated as "the acylase") may hydrolyze N-acyl-D-amino acids, but only slightly hydrolyze the N-acyl-L-amino acids.

[4] = 1 mM inhibitor, 50 mM Tris-HCl pH 7.8, 30 minutes at 37° C., ninhydrin method, read-out: Residual activities %

| SMILES | Residual activities % (D-aminoacylase [1]) [%] | Relative Activity D-form (D-aminoacylase [3]) | Relative Activity L-form (D-aminoacylase [3]) | also measured |
| --- | --- | --- | --- | --- |
| [Ba+2].[Cl-].[Cl-] [BaCl2] | 99 | – | – | – |
| [Ca+2].[Cl-].[Cl-] [CaCl2] | 99 | – | – | – |
| [Cl][Cd][Cl] [CdCl2] | 0 | – | – | – |
| [Cl-].[Cl-].[Co+2] [CoCl2] | 96 | – | – | – |
| [Cl][Cu][Cl] [CuCl2] | 15 | – | – | – |
| O=C(O)CN(CCN(CC(=O)O)CC(=O)O)CC(=O)O [EDTA] | – | – | – | Inhibition of the enzyme by reagent (in words) (D-aminoacylase [2]): inhibited; remaining activity at 1000 µM (D-aminoacylase [2]; pH 7.8, read-out: Residual activities %): 22% |
| [Cl][Fe][Cl] [FeCl2] | 60 | – | – | – |
| [Cl][Hg][Cl] [HgCl2] | 0 | – | – | – |
| [Cl-].[Cl-].[Mg+2] [MgCl2] | 95 | – | – | – |
| [Cl][Mn][Cl] [MnCl2] | 70 | – | – | – |
| CSCC[C@@H](NC(C)=O)C(=O)O [N-acetyl-D-methionine] | – | – | – | Hydrolysis by the acylase (in words) (D-aminoacylase [3]): strongest |
| CC(=O)N[C@@H](C)C(=O)O [N-acetyl-alanine] | – | 14 | 0.7 | – |
| CC(=O)N[C@@H](CC(N)=O)C(=O)O [N-acetyl-asparagine] | – | 8 | 0 | – |
| CC(=O)NC(CC(C)C)C(=O)O (stereo not shown) [N-acetyl-leuoine] | – | 40 | 0.4 | – |
| CSCC[C@H](NC(C)=O)C(=O)O [N-acetyl-methionine] | – | 100 | 0.8 | – |
| CC(=O)N[C@@H](Cc1ccccc1)C(=O)O [N-acetyl-phenylalanine] | – | 80 | 0.8 | – |
| CC(=O)NC(C(=O)O)c1ccccc1 (stereo not shown) [N-acetyl-phenylglycine] | – | 3 | 0 | – |
| CC(=O)N[C@@H](Cc1c[nH]c2ccccc12)C(=O)O [N-acetyl-tryptophan] | – | 14 | 0 | – |
| CC(=O)N[C@H](C(=O)O)C(C)C [N-acetyl-valine] | – | 6 | 0 | – |
| CC(C)[C@H](NC(=O)CCl)C(=O)O [N-chloroacetyl-valine] | – | 42 | 0.6 | – |
| CCN1C(=O)C=CC1=O [N-ethylmaleimide] | – | – | – | remaining activity at 1000 µM (D-aminoacylase [2]; [4]): 36%; Inhibition of the enzyme by reagent (in words) (D-aminoacylase [2]; 1 mM, 37° C., 30 minutes): inhibited |
| [Cl][Ni][Cl] [NiCl2] | 89 | – | – | – |
| [Cl-].[Cl-].[Sr+2] [SrCl2] | 87 | – | – | – |
| [Cl-].[Cl-].[Zn+2] [Zncl2] | 0 | – | – | – |
| NC(=O)CI [iodoacetamide] | – | – | – | remaining activity at 1000 µM (D-aminoacylase [2]; [4]): 97% |
| O=C(O)c1cc[c]([Hg][Cl])cc1 [p-chloromercuibenzoic acid] | – | – | – | Residual activities % (D-aminoacylase [2]; 1 mM inhibitor, 50 mM Tris-HCl pH 7.8, 30 minutes at 37° C., ninhydrin method): 0%; Inhibition of the enzyme by reagent (in words) (D-aminoacylase [2]; 1 mM, 37° C., 30 minutes): inhibited |
| O=CC(=O)c1ccccc1 [phenylglyoxal] | – | – | – | remaining activity at 1000 µM (D-aminoacylase [2]; [4]): 65%; Inhibition of the enzyme by reagent (in words) (D-aminoacylase [2]; 1 mM, 37° C., 30 minutes): inhibited |
